The nature of data set [1]: Pharmacokinetics of CYZ in human plasma after I.V administration (non-compartmental analysis). Type of data set: in vivo. Here is the method:
One mL of CYZ was intravenously injected into three human volunteers in good health and Using a calibrated heparinized tube, a 5 mL sample of human blood was drawn from each volunteer after 0.5, 1, 2, 4, 8 hrs. All the collected samples were centrifuged for 20 min at 4000 rpm. 1 mL of each sample was quantitatively poured into a centrifuge tube, and 1 mL acetonitrile was applied to precipitate plasma proteins, until centrifugation at 4000 rpm for 20 minutes. The clear plasma supernatant was transferred to Eppendorf tubes and held at […] until the rest of the procedure was completed.
Non-compartmental analysis (NCA) was used to measure pharmacokinetic parameters such as half-life, C max, T max, elimination rate constant, clearance, apparent volume of distribution, and area under the curve using Thermo Kinetica software (version 5.0) and PK solver software after taking human plasma samples from previously injected volunteers. In deciding the proper usage of the drug and in forecasting the impact of pharmacokinetic drug interactions, the results of pharmacokinetic research have been helpful.

Data set [2] can be described thus: Stability of CYZ in plasma (short-term room temperature and freeze-thaw). Type of data set: in vitro ADME, human. Conditions: rat plasma. As for the experimental part: To cover the anticipated sample treatment and storage environments during the processing of samples, the stability of CYZ in human plasma was investigated as short‐term stability at room temperature and freeze–thaw stability. In all stability tests, three replicates of three concentrations at low, medium, and high levels were treated and compared to recently prepared QC samples.

Where [3] appears, read: intravenous, I.V administration of Emetrex 50 mg.

Take `CN1CCN(C(c2ccccc2)c2ccccc2)CC1` [CYZ, 1-benzhydryl-4-methylpiperazine]: the “Elimination rate constant (K)” value in data set [1] (I.V administration of Emetrex 50 mg) came out at 0.274 ± 0.10. Further, in data set [1] (intravenous, 50 mg, after I.V injection), the Tmax – broadly, the time at which the peak concentration occurs – came to 2 h. Moreover, in data set [1] (setting [3]), the AUC(0-inf) – broadly, the area under the concentration-time curve extrapolated to infinity – was determined as 213 ± 7.21 µg·h/mL; the AUC(0-t) (in general, the area under the concentration-time curve up to a stated or last time point) was determined as 22300 ± 1220 ng·h/mL; the peak concentration (Cmax) (commonly the highest concentration seen after dosing) was determined as 72.8 ± 1.56 ng/mL; the half-life (commonly the time in which the quantity being followed falls by half) is 152 ± 25.8 min. Further, the Vd (as a rule, a proportionality between amount in the body and measured concentration, not a real space) in data set [1] (intravenous, I.V administration of Emetrex 50 mg, read-out: Volume of distribution (Vd)) is 0.695 ± 0.23 L. Further, the amount remaining – broadly, the share of the starting amount still present when the sample was taken – at 6 h, 30 ng/mL in data set [2] (30 ng/mL, room temperature for 6 h) was found to be 97 ± 1.13%. This molecule yielded an amount remaining at 30 ng/mL in data set [2] (30 ng/mL, three freeze thaw cycle) of 97.1 ± 1.32%. This molecule yielded a fraction remaining at 6 h, 400 ng/mL in data set [2] (400 ng/mL, room temperature for 6 h) of 98.03 ± 0.98%. This molecule also displayed an amount remaining at 400 ng/mL in data set [2] (400 ng/mL, three freeze thaw cycle) of 96.5 ± 0.97%. The molecule further had a fraction remaining at 6 h, 800 ng/mL in data set [2] (800 ng/mL, room temperature for 6 h) of 96.1 ± 1.88%. In data set [2] (800 ng/mL, three freeze thaw cycle), this molecule had an amount remaining at 800 ng/mL of 97.2 ± 1.76%.

These data come from paper PMC9095528, “Spectrofluorimetric Approach for Quantification of Cyclizine in the Presence of its Toxic Impurities in Human Plasma; in silico Study and ADMET Calculations” (Journal of Fluorescence, 2022).
